± gives the expanded uncertainty stated by the source.
Experiment: activity coefficient (dimensionless); of the first substance listed, at infinite dilution; xn = mol fraction of the nth substance listed
Conditions: 101 kPa, Liquid, Chromatography, x1 = 0

Structure (SMILES)	activity coefficient (323 K)	activity coefficient (343 K)	activity coefficient (303 K)
CC(C)O [propan-2-ol] + CCCCCCn1cc[n+](C)c1.F[B-](F)(F)F	1.61 ± 0.17	1.57 ± 0.16	
CO [methanol] + CCn1cc[n+](C)c1.F[B-](F)(F)F	0.43 ± 0.05	0.42 ± 0.05	0.43 ± 0.05
ClC(Cl)(Cl)Cl [tetrachloromethane] + CCCCCCCC[n+]1ccn(C)c1.F[B-](F)(F)F	2.39 ± 0.25	2.62 ± 0.28	
ClC(Cl)(Cl)Cl [tetrachloromethane] + CCCCn1cc[n+](C)c1.F[B-](F)(F)F	5.5 ± 0.58	5.73 ± 0.6	
C1CCCCC1 [cyclohexane] + CCCCn1cc[n+](C)c1.F[B-](F)(F)F	38.4 ± 4	32.8 ± 3.5	44.9 ± 4.7
ClCCCl [1,2-dichloroethane] + CCCCCCCC[n+]1ccn(C)c1.F[B-](F)(F)F	0.93 ± 0.09	0.95 ± 0.1	
ClC=C(Cl)Cl [trichloroethene] + CCCCCCn1cc[n+](C)c1.F[B-](F)(F)F		2.53 ± 0.27	
CCC(C)=O [butanone] + CCCCCCn1cc[n+](C)c1.F[B-](F)(F)F	1.14 ± 0.12	1.21 ± 0.12	
CC(C)CC(C)(C)C [2,2,4-trimethylpentane] + CCn1cc[n+](C)c1.F[B-](F)(F)F	168 ± 18	162 ± 17	222 ± 23
CC(C)O [propan-2-ol] + CCCCCCCC[n+]1ccn(C)c1.F[B-](F)(F)F	1.41 ± 0.15	1.27 ± 0.13	
ClCCCl [1,2-dichloroethane] + CCCCn1cc[n+](C)c1.F[B-](F)(F)F	1.51 ± 0.16	1.63 ± 0.17	
CC(C)CC(C)(C)C [2,2,4-trimethylpentane] + CCCCn1cc[n+](C)c1.F[B-](F)(F)F	127 ± 13	125 ± 13	145 ± 15
CCCCCC [hexane] + CCCCCCn1cc[n+](C)c1.F[B-](F)(F)F	29.6 ± 3.1	26.1 ± 2.7	34.8 ± 3.7
